One series has as its target T1, Human COX-2 (Homo sapiens, UniProt P35354).
T1 construct: Human blood (≈50 mL) from male or female donors who had not received any aspirin or NSAIDs for 14 days was collected; endogenous in cells; host or cells: human whole blood from donors, heparinised, COX-2 induced with E. coli LPS
T1 sequence (P35354 18-604): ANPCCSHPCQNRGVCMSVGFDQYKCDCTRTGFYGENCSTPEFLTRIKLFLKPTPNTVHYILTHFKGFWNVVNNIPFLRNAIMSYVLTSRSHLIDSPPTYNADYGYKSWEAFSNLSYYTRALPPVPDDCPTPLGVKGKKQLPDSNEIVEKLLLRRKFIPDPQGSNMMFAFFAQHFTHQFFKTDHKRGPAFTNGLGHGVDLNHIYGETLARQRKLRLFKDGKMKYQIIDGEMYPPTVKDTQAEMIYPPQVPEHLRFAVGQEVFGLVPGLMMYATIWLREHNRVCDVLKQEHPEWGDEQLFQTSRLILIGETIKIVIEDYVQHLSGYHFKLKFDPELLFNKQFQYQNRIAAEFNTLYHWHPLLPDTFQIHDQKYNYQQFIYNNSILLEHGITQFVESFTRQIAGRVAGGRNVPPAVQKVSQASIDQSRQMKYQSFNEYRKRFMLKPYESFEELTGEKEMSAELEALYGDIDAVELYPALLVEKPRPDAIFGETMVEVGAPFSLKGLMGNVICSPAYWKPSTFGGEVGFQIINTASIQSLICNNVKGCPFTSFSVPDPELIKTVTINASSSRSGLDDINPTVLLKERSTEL
The series is described as follows: COX-2 enzyme activity in human whole blood (LPS-induced, thromboxane B2 EIA). It is filed as cell-based. The method, then: (§1) Human blood (≈50 mL) from male or female donors who had not received any aspirin or NSAIDs for 14 days was collected at two local area blood donor centers and placed in polypropylene syringes containing sodium heparin (20 units per mL blood, final concentration). The blood was transported to the laboratory on ice packs and used within 1.5 hours of collection. Upon receipt in the laboratory, the blood was allowed to come to room temperature for 15 minutes prior to distribution in 1 mL aliquots per well of 24 well tissue culture plates. The plates were then placed on a gently rotating platform shaker in a 5% CO2 incubator at 37° C. for 15 minutes. Test compounds were dissolved in DMSO, at 1000 fold the final desired concentration, and further diluted, as indicated, in DMSO. One μL of each dilution of the test compound was added per well, in duplicate wells; wells not receiving test compound (e.g., basal, background or control wells) received 1 μL DMSO.
(§2) (Basal or background wells not incubated with LPS received 2 μL of DMSO.) For the stimulation of COX-1, the calcium ionophore, A23187 (free acid from Sigma Chemical Co., St. Louis, Mo., Catalogue No. C7522) was added at 25 μM (1 μL of 25 mM stock in DMSO) to separate wells 4.5 hours after the addition of the test compound. (Again, basal, background or control wells not stimulated with A23187 received 1 μL of DMSO.) At 5 hours after the addition of the test compound, all incubations were terminated by placement on ice and the addition of 2 mM EGTA (100 μL of 20 mM EGTA, tetrasodium, in PBS (phosphate buffered saline) without Ca^++ and Mg^++, pH 7.2)). The resulting solutions, were transferred by polyethylene transfer pipettes to 15 mL polypropylene centrifuge tubes and centrifuged at 1200 g for 10 minutes at 4° C. One hundred μL of plasma was removed from each blood sample and added to 1 mL of methanol in new 15 mL polypropylene centrifuge tubes, vortexed, and stored overnight at −20° C. The next day, the samples were centrifuged at 2000 g for 10 minutes at 4° C. and the supernatants transferred to glass tubes and evaporated to dryness.

Another series has as its target T2, Human COX-1 (Homo sapiens, UniProt P23219).
T2 construct: Human blood (≈50 mL) from male or female donors who had not received any aspirin or NSAIDs for 14 days was collected; endogenous in cells; host or cells: human whole blood from donors, heparinised, stimulated with calcium ionophore A23187
Kind of series: COX-1 enzyme activity in human whole blood (A23187-stimulated, thromboxane B2 EIA). Format: cell-based. The conditions noted are these: 100 μM test compound. The method, then:
as §1, with “The assay for COX-1 and COX-2 enzyme activity, in the human whole blood was performed as described in Brideau et al., Inflamm Res., 45: 68-74 (1996)). Human” for “Human”
as §2, with “To induce COX-2, lipopolysaccharide (LPS) from E. coli (LPS, serotype 026:B6 or serotype 0127:B8, Sigma Chemical Co., St. Louis, Mo., Catalogue No. L3755 or L3129, respectively) was added at 10 μg/mL (2 μL of 5 mg/mL LPS in DMSO) to appropriate wells 15 minutes after the addition of the test compound. (Basal” for “(Basal”, “dryness. The samples were assayed for thromboxane B2 using EIA kits supplied by Cayman Chemical Co. (Ann Arbor, Mich., Catalogue No. 519031) in duplicate wells after reconstitution with EIA Buffer and appropriate dilution (2000 fold for COX-1 and 500 fold for Cox-2 samples).” for “dryness.”
The % inhibition for COX-1 and COX-2 enzyme activity in human whole blood by the test compounds, at the indicated concentrations, are given in Table 1.

T2 sequence (P23219 24-599): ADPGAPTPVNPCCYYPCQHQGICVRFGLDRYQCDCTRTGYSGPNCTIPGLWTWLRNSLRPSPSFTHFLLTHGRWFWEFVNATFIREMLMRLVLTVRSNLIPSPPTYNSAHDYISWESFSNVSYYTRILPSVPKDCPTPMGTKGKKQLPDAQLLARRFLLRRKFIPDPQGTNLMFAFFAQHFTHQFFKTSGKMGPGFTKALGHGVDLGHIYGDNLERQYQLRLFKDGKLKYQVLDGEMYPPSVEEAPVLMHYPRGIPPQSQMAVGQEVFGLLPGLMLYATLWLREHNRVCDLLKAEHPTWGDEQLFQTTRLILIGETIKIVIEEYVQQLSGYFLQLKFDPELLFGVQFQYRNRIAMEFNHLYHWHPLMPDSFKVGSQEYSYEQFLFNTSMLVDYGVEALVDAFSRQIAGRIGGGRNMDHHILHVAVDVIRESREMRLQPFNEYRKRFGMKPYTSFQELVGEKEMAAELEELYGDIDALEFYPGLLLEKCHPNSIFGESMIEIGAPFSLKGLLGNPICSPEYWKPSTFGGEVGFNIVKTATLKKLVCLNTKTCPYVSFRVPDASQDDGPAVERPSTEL

What is called inhibition is the change of the read-out against control, counted positive when it falls. What is called melting point is the temperature of the solid-liquid transition. For `CS(=O)(=O)c1ccc(-c2cc(CCCO[N+](=O)[O-])nn2CC2CCCCC2)cc1` [Example 5c, 1-(1-(Cyclohexylmethyl)-3-(3-(nitrooxy)propyl)pyrazol-5-yl)-4-(methylsulfonyl)benzene], the melting point was 76 to 77 °C. Besides, the inhibition at 1 µM on Human COX-2 (1 μM test compound) was determined as 75%. Also, the inhibition at 10 µM against Human COX-2 (10 μM test compound) was determined as 100%. Also, the inhibition at 100 µM against Human COX-1 came to 90%.

Consider `CS(=O)(=O)c1ccc(-c2cc(CO)nn2Cc2ccccc2)cc1` [Example 3c, 1-(3-(Hydroxymethyl)-1-benzylpyrazol-5-yl)-4-(methylsulfonyl)benzene], for which the inhibition at 1 µM on Human COX-2 (1 μM test compound) was 10%. Besides, the inhibition at 10 µM against Human COX-2 (10 μM test compound) was 15%. Also, the inhibition at 100 µM at Human COX-1 turned out to be 25%.

In the case of `COC(=O)/C=C/c1cc(-c2ccc(S(C)(=O)=O)cc2)n(CC2CCCCC2)n1` [Example 7, Methyl (2E)-3-(1-(cyclohexylmethyl)-5-(4-(methylsulfonyl)phenyl)pyrazol-3-yl) prop-2-enoate], the “COX-2 Inhibition (% at 1 μM)” value at Human COX-2 (1 μM test compound) was 15%. At Human COX-2 (10 μM test compound), the “COX-2 Inhibition (% at 10 μM)” value is 30%. The “COX-1 Inhibition (% at 100 μM)” value at Human COX-1 was 5%.

In the case of `CCOC(=O)c1cccc(C(=O)c2cccnc2-c2ccc(S(C)(=O)=O)cc2)c1` [Example 12b, Ethyl 3-((2-(4-(methylsulfonyl)phenyl)-3-pyridyl)carbonyl)benzoate], the melting point is 125 to 132 °C. Moreover, the inhibition at 1 µM against Human COX-2 (1 μM test compound) came to 10%. Moreover, on Human COX-2 (10 μM test compound), the inhibition at 10 µM was 20%. The inhibition at 100 µM at Human COX-1 worked out at 25%.

As for `CS(=O)(=O)c1ccc(-c2cc(/C=C/CO)nn2CC2CCCCC2)cc1` [Example 4d, 1-(3-((1E)-3-Hydroxyprop-1-enyl)-1-(cyclohexylmethyl)pyrazol-5-yl)-4-(methylsulfonyl)benzene], the inhibition at 1 µM at Human COX-2 (1 μM test compound) amounted to 25%. Also, the inhibition at 10 µM at Human COX-2 (10 μM test compound) is 45%. Besides, the inhibition at 100 µM against Human COX-1 turned out to be 50%.

In the case of `CS(=O)(=O)c1ccc(-c2cc(CO[N+](=O)[O-])nn2Cc2ccccc2)cc1` [Example 3d, 4-(Methylsulfonyl)-1-(3-((nitrooxyl)methyl)-1-benzylpyrazol-5-yl)benzene], the melting point is 93 to 94 °C. On Human COX-2 (1 μM test compound), the inhibition at 1 µM worked out at 20%. The inhibition at 10 µM against Human COX-2 (10 μM test compound) came out at 40%. Besides, the inhibition at 100 µM at Human COX-1 was found to be 55%.

As for `CS(=O)(=O)c1ccc(-c2cc(C(F)(F)F)cnc2C(=O)c2ccccc2)cc1` [Example 9a, 3-(4-(Methylsulfonyl)phenyl)-5-(trifluoromethyl)(2-pyridyl) Phenyl Ketone], the melting point lay within 141 to 142 °C. The inhibition at 100 µM at Human COX-1 was determined as 90%.

On to `CS(=O)(=O)c1ccc(-c2cc(CO)nn2CC2CCCCC2)cc1` [Example 1g, 1-(1-(Cyclohexylmethyl)-3-(hydroxymethyl)pyrazol-5-yl)-4-(methylsulfonyl)benzene], for which the inhibition at 1 µM against Human COX-2 (1 μM test compound) turned out to be 0%. The inhibition at 10 µM on Human COX-2 (10 μM test compound) amounted to 45%. The inhibition at 100 µM on Human COX-1 is 65%.

`CS(=O)(=O)c1ccc(-c2ncccc2C(=O)c2ccccn2)cc1` [Example 11b, 2-(4-(Methylsulfonyl)phenyl)(3-pyridyl) 2-pyridyl Ketone] returned a melting point of 143 to 147 °C. Moreover, the inhibition at 1 µM against Human COX-2 (1 μM test compound) came out at 0%. Besides, on Human COX-2 (10 μM test compound), the inhibition at 10 µM is 15%. Also, the inhibition at 100 µM on Human COX-1 stood at 0%.

Regarding `CS(=O)(=O)c1ccc(-c2cc(COCCO)nn2CC2CCCCC2)cc1` [Example 2e, 4-(1-(Cyclohexylmethyl)-3-((2-hydroxyethoxy)methyl)pyrazol-5-yl)-1 (methylsulfonyl)benzene], the inhibition at 1 µM at Human COX-2 (1 μM test compound) is 25%. The inhibition at 10 µM on Human COX-2 (10 μM test compound) was 65%. Further, at Human COX-1, the inhibition at 100 µM was found to be 65%.

`C=Cc1cc(-c2ccc(S(C)(=O)=O)cc2)n(CC2CCCCC2)n1` [Example 6b, 1-(1-(Cyclohexylmethyl)-3-vinylpyrazol-5-yl)-4-(methylsulfonyl)benzene] registered a melting point of 136 to 138 °C. Also, the inhibition at 1 µM at Human COX-2 (1 μM test compound) was determined as 70%. Also, the inhibition at 10 µM on Human COX-2 (10 μM test compound) came out at 100%. In addition, at Human COX-1, the inhibition at 100 µM amounted to 30%.

The compound `COC(=O)c1cc(-c2ccc(S(C)(=O)=O)cc2)n(Cc2ccccc2)n1` [Example 8, Methyl 5-(4-(methylsulfonyl)phenyl)-1-benzylpyrazole-3-carboxylate] showed a melting point of 142 to 143 °C. Further, the inhibition at 1 µM at Human COX-2 (1 μM test compound) came out at 15%. Besides, on Human COX-2 (10 μM test compound), the inhibition at 10 µM was found to be 25%. Further, the inhibition at 100 µM against Human COX-1 turned out to be 55%.

With `CS(=O)(=O)c1ccc(-c2cc(C(F)(F)F)cnc2C(C#N)c2ccccc2)cc1` (centres unmarked) [Example 9b, 2-(3-(4-(methylsulfonyl)phenyl)-5-(trifluoromethyl)(2-pyridyl))-2-phenylethanenitrile], the inhibition at 1 µM on Human COX-2 (1 μM test compound) amounted to 35%. In addition, the inhibition at 10 µM at Human COX-2 (10 μM test compound) came out at 55%. Besides, the inhibition at 100 µM at Human COX-1 is -10%.

With `CS(=O)(=O)c1ccc(-c2cc(CCCO)nn2CC2CCCCC2)cc1` [Example 5b, 1-(1-(Cyclohexylmethyl)-3-(3-hydroxypropyl)pyrazol-5-yl)-4-(methylsulfonyl)benzene], the inhibition at 1 µM against Human COX-2 (1 μM test compound) amounted to 45%. Further, on Human COX-2 (10 μM test compound), the inhibition at 10 µM is 90%. Besides, the inhibition at 100 µM against Human COX-1 turned out to be 90%.

In the case of `CS(=O)(=O)c1ccc(-c2ncccc2C(=O)c2cccc(F)c2)cc1` [Example 10c, 3-Fluorophenyl 2-(4-methylsulfonylphenyl)(3-pyridyl) ketone], on Human COX-2 (1 μM test compound), the inhibition at 1 µM came out at 55%. For the same compound, the inhibition at 10 µM against Human COX-2 (10 μM test compound) came to 50%. Also, the inhibition at 100 µM against Human COX-1 was 5%.

For the origin of these results see US7244753B2, “Cyclooxygenase-2 selective inhibitors, compositions and methods of use” (NitroMed, Inc., priority 2002, dated 2007).
